Results reported in US20260034111A1, “NOVEL HETEROCYCLES AS sPLA2-X INHIBITORS” (Cayman Chemical Company Incorporated, priority 2022, published 2026).
Where two headings read alike, the source gives them in different places.

Assays:
Assay type in all cases: biochemical
[1] = biological target: T1, recombinant human sPLA2-IIA enzyme (Homo sapiens, UniProt P14555); test: sPLA2-IIA enzyme inhibition assay (thio-PC substrate, DTNB detection, absorbance 410 nm); conditions: class symbols
T1 construct: made in house; host or cells: E. coli
T1 sequence (P14555 21-144): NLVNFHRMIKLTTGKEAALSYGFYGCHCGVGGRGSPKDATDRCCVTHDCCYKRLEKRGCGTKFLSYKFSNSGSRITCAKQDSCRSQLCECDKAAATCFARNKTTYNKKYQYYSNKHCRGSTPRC
From the text: (§1) Screening Compounds for Inhibition of sPLA2-X, sPLA2-V, and sPLA2-IIA Enzyme Activity
(§2) These sPLA2 enzymes hydrolyze the sn-2 acyl chains of glycerophospholipids, resulting in the release of a free fatty acid and a lysophospholipid. In the case of the thio-PC substrate, this enzymatic hydrolysis results in a free sulfhydryl group remaining on the lysophospholipid. This free sulfhydryl reacts with DTNB to produce the chromogenic product 5-nitro-2-thiobenzoic acid (TNB) which can be quantitated by absorbance at 410 nm. The amount of TNB produced reflects the hydrolytic activity of the enzyme.
(§3) The recombinant human sPLA2 groups IIA, V, and X enzymes were expressed in E. coli and purified to >90% purity by standard biochemical methods.
(§4) Procedure of Enzyme Inhibition for sPLA2-X • 1. […] Dilute the test compounds in 100% DMSO by half-log steps in a 96-well dilution plate using columns 1-11 (one compound per row). Column 12 contains DMSO alone with no compound. • 3. Prepare a 3.5 mM thio-PC substrate solution by drying down 7.2 mg of stock thio-PC in ethanol under a gentle stream of N2 gas. When dry, add 4 mL assay buffer (25 mM Tris, pH7.4; 100 mM KCl; 10 mM CaCl2; 0.1% Triton X-100) and warm in a 37° C. water bath for 20 minutes with intermittent vortexing. • 4. Prepare an “enzyme containing” reaction mix with the following components: 20.4 mL assay buffer; 2 mL DTNB (20 mM in 800 mM Tris, pH8.0); and 11.8 mg recombinant human sPLA2-X enzyme (>95% pure) diluted to a total of 0.8 mL assay buffer. • 5. Prepare a “no enzyme” reaction mix with the following components: 477 μL assay buffer and 45 μL DTNB. • 6. Dispense 58 μL “no enzyme” reaction mix into each of 8 wells (columns 23 and 24, rows M-P). • 7. Dispense 58 μL “enzyme containing” reaction mix into all remaining wells on the plate. • 8. From the 96-well compound dilution plate, add 2 μL from each well for each compound to each of 4 wells with “enzyme containing” reaction mix. Columns 23 and 24 on the assay plate will contain only DMSO (vehicle control). […] After compound addition, mix the contents of each well to ensure that the DMSO is evenly distributed in the well. • 9. Cover the plate and incubate in the dark at room temperature for 15 minutes. • 10. Add 10 μL of thio-PC substrate to all wells. The final concentration of thio-PC in the reactions is 0.5 mM. • 11. Cover the plate and incubate in the dark at room temperature for 30 minutes. • 12. Measure the absorbance of all wells at 410 nm. • 13. Determine the mean absorbance of the “no enzyme” wells. Subtract this value from the absorbance values determined for all other wells (these are now background corrected data). • 14. […] Procedure of Enzyme Inhibition for sPLA2-V • 1. […] Dilute the test compounds in 100% DMSO by half-log steps in a 96-well dilution plate using columns 1-11. Column 12 contains DMSO alone with no compound. • 3. Prepare a 3.5 mM thio-PC substrate solution by drying down 7.2 mg of stock thio-PC in ethanol under a gentle stream of N2 gas. When dry, add 4 mL assay buffer (25 mM Tris, pH7.4; 100 mM KCl; 10 mM CaCl2; 0.1% Triton X-100) and warm in a 37° C. water bath for 20 minutes with intermittent vortexing. • 4. Prepare an “enzyme containing” reaction mix with the following components: 20.4 mL assay buffer; 2 mL DTNB (20 mM in 800 mM Tris, pH8.0); and 12 mg recombinant human sPLA2-V enzyme (>95% pure) diluted to a total of 0.8 mL assay buffer. • 5. Prepare a “no enzyme” reaction mix with the following components: 477 μL assay buffer and […]. • 6. Dispense 58 μL “no enzyme” reaction mix into each of 8 wells (columns 23 and 24, rows M-P). • 7. Dispense 58 μL “enzyme containing” reaction mix into all remaining wells on the plate. • 8. From the 96-well compound dilution plate, add 2 μL from each well for each compound to each of 4 wells with “enzyme containing” reaction mix. Columns 23 and 24 on the assay plate will contain only DMSO (vehicle control).

sPLA2-X protein = biological target: T2, sPLA2-X protein (Homo sapiens, UniProt O15496); test: sPLA2-X enzyme inhibition assay (thio-PC substrate, DTNB detection, absorbance 410 nm); design: made in house; host or cells: E. coli; conditions: class symbols
T2 sequence (O15496 43-165): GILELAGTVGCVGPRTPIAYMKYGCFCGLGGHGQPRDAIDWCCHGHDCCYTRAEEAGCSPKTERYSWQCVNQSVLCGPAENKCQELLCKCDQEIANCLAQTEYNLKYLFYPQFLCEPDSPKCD
From the text: as §1, §2, §3, §4

[2] = biological target: T3, recombinant human sPLA2-V enzyme (Homo sapiens, UniProt P39877); test: sPLA2-V enzyme inhibition assay (thio-PC substrate, DTNB detection, absorbance 410 nm)
T3 construct: made in house; host or cells: E. coli
T3 sequence (P39877 21-138): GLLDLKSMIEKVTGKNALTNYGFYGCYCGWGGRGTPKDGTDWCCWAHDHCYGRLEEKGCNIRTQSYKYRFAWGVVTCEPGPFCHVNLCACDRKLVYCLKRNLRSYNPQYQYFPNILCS
From the text: as §1, §2, §3, §4

[3] = read-out: sPLA2 Type IIa Inhibition (IC50; nM)
[4] = read-out: sPLA2 Type X Inhibition (IC50; nM)
[5] = class symbols, read-out: sPLA2 Type V Inhibition (IC50; nM)

SMILES | IC50 [1, 3] | IC50 (sPLA2-X protein; [4]) | IC50 [2, 5] | IC50 ([1]; sPLA2 Type IIa Inhibition (IC50; nM)) | IC50 (sPLA2-X protein; sPLA2 Type X Inhibition (IC50; nM)) | IC50 ([2]; sPLA2 Type V Inhibition (IC50; nM), class symbols) | IC50 ([2]; IC50 value for positive control, sPLA2-V, value the positive control should give per the procedure) | IC50 ([2]; numeric value, control, read-out: sPLA2 Type V Inhibition (IC50; nM))
NC(=O)c1cc2ccc(OC(F)(F)F)cc2n1-c1ccc2occ(CC(=O)O)c2c1 [Compound 12, 2-(5-(2-carbamoyl-6-(trifluoromethoxy)-1H-indol-1-yl)benzofuran-3-yl)acetic acid] | > 1000 nM | 50 to 200 nM | > 5000 nM | – | – | – | – | –
COC(=O)CC1(c2cccc(-c3c(C(N)=O)sc4ccc(OC(F)(F)F)cc34)c2)CC1 [Compound 35, methyl 2-(1-(3-(2-carbamoyl-5-(trifluoromethoxy)benzo[b]thiophen-3-yl)phenyl)cyclopropyl)acetate] | > 1000 nM | > 200 nM | > 5000 nM | – | – | – | – | –
NC(=O)c1oc2ccccc2c1-c1cccc(CCC(=O)O)c1 [Compound 25, 3-(3-(2-carbamoylbenzofuran-3-yl)phenyl)propanoic acid] | > 1000 nM | > 200 nM | > 5000 nM | – | – | – | – | –
NC(=O)c1[se]c2ccc(OC(F)(F)F)cc2c1-c1cccc(C2CC2C(=O)O)n1 (racemic) [Compound 55, trans-(rac)-2-(6-(2-carbamoyl-5-(trifluoromethoxy)benzo[b]selenophen-3-yl)pyridin-2-yl)cyclopropane-1-carboxylic acid] | – | – | – | > 1000 nM | > 200 nM | > 5000 nM | – | –
NC(=O)c1cc2ccc(OC(F)(F)F)cc2n1-c1cccc(C2CC2C(=O)O)c1 (racemic) [Compound 15, trans-2-(3-(2-carbamoyl-6-(trifluoromethoxy)-1H-indol-1-yl)phenyl)cyclopropane-1-carboxylic acid] | > 1000 nM | 20 to 50 nM | > 5000 nM | – | – | – | – | –
NC(=O)c1cc2ccc(OC(F)(F)F)cc2n1-c1cccc(N2CC[C@H]2C(=O)O)n1 [Compound 69, (S)-1-(6-(2-carbamoyl-6-(trifluoromethoxy)-1H-indol-1-yl)pyridin-2-yl)azetidine-2-carboxylic acid] | > 1000 nM | > 200 nM | > 5000 nM | – | – | – | – | –
NC(=O)c1cc2ccc(OC(F)(F)F)cc2n1-c1cccc(C2CC2C(=O)O)n1 (racemic) [Compound 28, trans-(rac)-2-(6-(2-carbamoyl-6-(trifluoromethoxy)-1H-indol-1-yl)pyridin-2-yl)cyclopropane-1-carboxylic acid] | > 1000 nM | < 20 nM | > 5000 nM | – | – | – | – | –
NC(=O)c1sc2ccccc2c1-c1cccc(CCC(=O)O)c1 [Compound 13, 3-(3-(2-carbamoylbenzo[b]thiophen-3-yl)phenyl)propanoic acid] | > 1000 nM | > 200 nM | > 5000 nM | – | – | – | – | –
NC(=O)c1cc2ccc(OC(F)(F)F)cc2n1-c1cccc(CCC(=O)O)n1 [Compound 18, 3-(6-(2-carbamoyl-6-(trifluoromethoxy)-1H-indol-1-yl)pyridin-2-yl)propanoic acid] | > 1000 nM | < 20 nM | 1500 to 5000 nM | – | – | – | – | –
CCc1c(C(=O)C(N)=O)c2c(OCC(=O)O)cccc2n1Cc1ccccc1 [LY315920, Varespladib, reference compound] | – | – | – | – | – | – | ~100 nM | 124 nM

Further lines, with some results ahead:

IC50 [1, 3] | IC50 (sPLA2-X protein; [4]) | IC50 [2, 5] | SMILES | IC50 ([1]; sPLA2 Type IIa Inhibition (IC50; nM)) | IC50 (sPLA2-X protein; sPLA2 Type X Inhibition (IC50; nM)) | IC50 ([2]; sPLA2 Type V Inhibition (IC50; nM), class symbols) | IC50 ([2]; IC50 value for positive control, sPLA2-V, value the positive control should give per the procedure) | IC50 ([2]; numeric value, control, read-out: sPLA2 Type V Inhibition (IC50; nM))
> 1000 nM | > 200 nM | > 5000 nM | N[C@H](CC(=O)O)c1cccc(-n2c(C(=O)O)cc3ccc(OC(F)(F)F)cc32)c1 [Compound 43, (R)-1-(3-(1-amino-2-carboxyethyl)phenyl)-6-(trifluoromethoxy)-1H-indole-2-carboxylic acid] | – | – | – | – | –
> 1000 nM | 50 to 200 nM | > 5000 nM | NC(=O)c1cc2ccc(OC(F)(F)F)cc2n1-c1cccc(N2CC(F)(F)C2)n1 [Compound 68, 1-(6-(3,3-difluoroazetidin-1-yl)pyridin-2-yl)-6-(trifluoromethoxy)-1H-indole-2-carboxamide] | – | – | – | – | –
> 1000 nM | 50 to 200 nM | > 5000 nM | NC(=O)c1cc2ccc(OC(F)(F)F)cc2n1-c1cccc(C(F)(F)CO)c1 [Compound 46, 1-(3-(1,1-difluoro-2-hydroxyethyl)phenyl)-6-(trifluoromethoxy)-1H-indole-2-carboxamide] | – | – | – | – | –
> 1000 nM | > 200 nM | > 5000 nM | C/C(=C\C(=O)O)c1cccc(-n2c(C(N)=O)cc3ccc(OC(F)(F)F)cc32)n1 [Compound 6, (E)-3-(6-(2-carbamoyl-6-(trifluoromethoxy)-1H-indol-1-yl)pyridin-2-yl)but-2-enoic acid] | – | – | – | – | –
200 to 500 nM | < 20 nM | < 500 nM | C[C@]1(c2cccc(-n3c(C(N)=O)cc4ccc(OC(F)(F)F)cc43)c2)C[C@H]1C(=O)O (relative stereo) [Compound 38a, cis-2-(3-(2-carbamoyl-6-(trifluoromethoxy)-1H-indol-1-yl)phenyl)-2-methylcyclopropane-1-carboxylic acid] | – | – | – | – | –
> 1000 nM | > 200 nM | > 5000 nM | NC(=O)c1cc2ccc(OC(F)(F)F)cc2n1-c1cccc(C2CC2C(=O)O)c1 (single isomer, unassigned) [Compound 15a, trans-(+)-2-(3-(2-carbamoyl-6-(trifluoromethoxy)-1H-indol-1-yl)phenyl)cyclopropane-1-carboxylic acid] | – | – | – | – | –
> 1000 nM | 50 to 200 nM | > 5000 nM | NC(=O)c1sc2ccc(OC(F)(F)F)cc2c1-c1cccc(C2CC2C(=O)O)n1 (racemic) [Compound 54, trans-(rac)-2-(6-(2-carbamoyl-5-(trifluoromethoxy)benzo[b]thiophen-3-yl)pyridin-2-yl)cyclopropane-1-carboxylic acid] | – | – | – | – | –
> 1000 nM | > 200 nM | > 5000 nM | NC(=O)c1sc2ccc(OC(F)(F)F)cc2c1-c1ccc2c(c1)C(CC(=O)O)CO2 (stereo not shown) [Compound 7, 2-(5-(2-carbamoyl-5-(trifluoromethoxy)benzo[b]thiophen-3-yl)-2,3-dihydrobenzofuran-3-yl)acetic acid] | – | – | – | – | –
> 1000 nM | > 200 nM | – | NC(=O)c1cc2ccc(OC(F)(F)F)cc2n1-c1ccc2c(c1)C(CC(=O)O)CO2 (single isomer, unassigned; (-)) [Compound 1b, (−)-2-(5-(2-carbamoyl-6-(trifluoromethoxy)-1H-indol-1-yl)-2,3-dihydrobenzofuran-3-yl)acetic acid] | – | – | – | – | –
